Results: ChEMBL document CHEMBL1131732, “Potential anxiolytic agents. 3. Novel A-ring modified pyrido[1,2-a]benzimidazoles” (Bioorg Med Chem Lett, 1999)

Key:
[1] = target: GABA-A receptor; anion channel; assay: In vitro inhibitory against Gamma-aminobutyric acid A receptor from rat cerebral cortex using [3H]flunitrazepam as the radioligand; format: tissue-based
[2] = tested on: Mus musculus; assay: In vivo inhibitory activity against metrazole-induced seizures in mice by intraperitoneal administration; format: functional; conditions: ip
[3] = tested on: Mus musculus; assay: In vivo inhibitory activity against metrazole-induced seizures in mice by peroral administration; format: functional; conditions: po
[4] = tested on: Rattus norvegicus; assay: Inhibitory activity determined by experimentally-induced conflict test in rats after oral administration; format: functional; conditions: read-out: MED
[5] = target: GABA-A receptor; anion channel (Rattus norvegicus) (UniProt O09028+P15431+P18506+P18508+P19969+P20236+P23574+P23576+P28471+P28473+P30191+P62813+P63079+P63138+Q91ZM7+Q9ES14); assay: GABA shift which is the ratio of binding in the absence and presence of GABA (1 mM) was determined; format: protein-complex assay
[6] = tested on: Rattus norvegicus; assay: Inhibition of experimentally-induced conflict in rats following i.p. administration.; format: functional; conditions: ip, read-out: MED

Compound	IC50 [1] [nM]	ED50 [2] [mg/kg]	ED50 [3] [mg/kg]	minimal effective dose [4] [mg/kg]	GS [5]	minimal effective dose [6] [mg/kg]
O=C(Nc1ccccc1F)C1=C(O)CCn2c1nc1ccc3ccccc3c12	> 1000	> 1	> 30	> 10		
O=C(Nc1c(F)cccc1F)C1=C(O)CCn2c1nc1c(F)c(F)ccc12	1.1	0.2	0.2	3	1.4	
O=C(Nc1ccccc1F)C1=C(O)CCn2c1nc1c(F)c(F)ccc12	1.4	0.2	0.2	10	1.7	
O=C(Nc1ccccc1)C1=C(O)CCn2c1nc1cccnc12	4380	> 10	> 10	> 30	2.1	> 10
O=C(Nc1ccccc1F)C1=C(O)CCn2c1nc1c(Cl)cccc12	7.1	1	> 30	> 10	1.8	10
O=C(Nc1ccccc1F)C1=C(O)CCn2c1nc1c3ccccc3ccc12	154	> 1	> 30	> 10	2.8	
O=C(Nc1c(F)cccc1F)C1=C(O)CCn2c1nc1cnccc12	17.7	> 10		3	2.4	
O=C(Nc1ccccc1F)C1=C(O)CCn2c1nc1cccnc12	291	> 10	> 10	> 30	1.3	> 10
O=C(Nc1c(F)cccc1F)C1=C(O)CCn2c1nc1ccc(F)c(F)c12	66.2	> 1	> 1	> 10	1.7	
O=C(Nc1c(F)cccc1F)C1=C(O)CCn2c1nc1ncccc12	30.1	3	30	> 10	1.8	> 10
O=C(Nc1ccccc1F)C1=C(O)CCn2c1nc1c(F)cc(F)cc12	19.8	> 1	> 1	> 10	1.2	
O=C(Nc1ccccc1)C1=C(O)CCn2c1nc1ccc(Cl)cc12	174	> 10	> 30	30	2.1	> 10
O=C(Nc1c(F)cccc1F)C1=C(O)CCn2c1nc1cc(Cl)ccc12	6.3	1	10	10	2.2	10
O=C(Nc1ccccc1F)C1=C(O)CCn2c1nc1cc(F)ccc12	1.9	< 1	> 30	> 30	1.8	10
O=C(Nc1ccccc1)C1=C(O)CCn2c1nc1cc(O)ccc12	40.5	> 30	> 30	> 30	1.1	> 30
O=C(Nc1c(F)cccc1F)C1=C(O)CCn2c1nc1c(F)cc(F)cc12	30.1	> 1	> 1	> 10	2.4	
COc1cccc2c1nc1n2CCC(O)=C1C(=O)Nc1c(F)cccc1F	156				3.7	

Compound	IC50 [1] [nM]	ED50 [2] [mg/kg]	ED50 [3] [mg/kg]	minimal effective dose [4] [mg/kg]	GS [5]	minimal effective dose [6] [mg/kg]
O=C(Nc1c(F)cccc1F)C1=C(O)CCn2c1nc1c(Cl)cccc12	1.1	0.3	10	> 10	1.7	10
CN1C(=O)CN=C(c2ccccc2)c2cc(Cl)ccc21 [DIAZEPAM]		0.11	0.5	10	2.2	5
O=C(Nc1ccccc1)C1=C(O)CCn2c1nc1cc(Cl)ccc12	65.6	1	20	> 30	1.6	10
O=C(Nc1ccccc1F)C1=C(O)CCn2c1nc1cc(C(F)(F)F)ccc12	184	1		> 10	4.7	
O=C(Nc1c(F)cccc1F)C1=C(O)CCn2c1nc1cc(F)ccc12	6.3	0.3	3	3	2.2	3
O=C(Nc1ccccc1F)C1=C(O)CCn2c1nc1cc3ccccc3cc12	17	1	> 30	> 10	1	10
O=C(Nc1ccccc1F)C1=C(O)CCn2c1nc1c(O)cccc12	10.4			> 10	3	
O=C(Nc1ccccc1)C1=C(O)CCn2c1nc1ncccc12	8.3	3	< 30	30	3	> 10
Cc1cccc2c1nc1n2CCC(O)=C1C(=O)Nc1ccccc1	10.1	~1	> 10	> 30	2.8	> 10
COc1ccc2c(c1)nc1n2CCC(O)=C1C(=O)Nc1ccccc1	39.5	3	> 10	> 30	2.5	> 10
O=C(Nc1ccccc1F)C1=C(O)CCn2c1nc1ncccc12	3.5	1	10	> 30	2.7	10
COc1ccc2c(c1)nc1n2CCC(O)=C1C(=O)Nc1ccccc1F	6.1	> 10	> 10	> 30	1.2	> 10
Cc1cccc2c1nc1n2CCC(O)=C1C(=O)Nc1ccccc1F	96.3	1	10	> 30	1.5	10
O=C(Nc1ccccc1F)C1=C(O)CCn2c1nc1cccc(O)c12	14	> 1	> 30	> 30	2.8	> 1
O=C(Nc1ccccc1F)C1=C(O)CCn2c1nc1cc(Cl)ccc12	5.1	1	~30	> 10	1.8	10
O=C(Nc1ccccc1F)C1=C(O)CCn2c1nc1ccc(F)c(F)c12	857	> 1	> 1	> 10	2.5	
COc1cccc2c1nc1n2CCC(O)=C1C(=O)Nc1ccccc1F	7.8				1.4	
